Results on 5 molecules are retold here after patent publication US8293745B2 (Bioniche Life Sciences Inc., priority 2004, dated 2012).

One data set has as its system EMC virus. As to conditions: L929 cells; cited from earlier work.
The test system of a further data set is HCV. As to conditions: 400 mg/day.
The subject of data set [1] is GIST of the posterior wall of the stomach. Nature of the data set: Imatinib mesylate treatment of GIST in the same patient.
The subject of the next data set is HIV-1. The settings on record: cited from earlier work.
For the next data set, the system named is chronic phase CML. As to conditions: high-dose, newly diagnosed chronic phase CML; cited from earlier work.
Another data set relates to c-Kit tyrosine kinase. The settings on record: cited from earlier work.
Where [2] appears, read: human patient with HCV and GIST, within 2 weeks after the beginning of treatment, FIG. 1.

Molecules are shown by their SMILES.

Procedure for HCV: A person diagnosed with chronic active hepatitis C. […] The patient was positive for antibodies for HCV. Histological confirmation of chronic hepatitis was corroborated by positive hepatic biopsies at month zero.
For 18 months, the patient was treated with interferon alpha-2 at 180 μg/week. For the next 4 months, the patient was given intravenous administration of 6 million units (MU) interferon-beta daily for 6 weeks followed by three times weekly for 20 weeks. Subsequently, the patient was treated with interferon alpha-2 at 180 μg/week plus ribavirin 1000-1200 mg/day for 5 months. Subsequently, the patient was treated with pegylated interferon alpha-2b (PEG-interferon) at 1.5 μg/kg once weekly for 25 months.
Subsequently, the patient was diagnosed with a GIST of the posterior wall of the stomach. […] The patient then underwent surgical resection of the GIST.

`O=c1c(-c2ccc(O)cc2)coc2cc(O)cc(O)c12` [genistein]: in the data set on EMC virus, the EMC virus replication entry was “suppressed viral replication”.

With `CS(=O)(=O)O.Cc1ccc(NC(=O)c2ccc(CN3CCN(C)CC3)cc2)cc1Nc1nccc(-c2cccnc2)n1` [imatinib mesylate, 4-[(4-methyl-1-piperazinyl)methyl]-N-[4-methyl-3-[[4-(3-pyridinyl)-2-pyrimidinyl]amino]phenyl]-benzamide methanesulfonate], in the data set with HCV (setting [2]), the “levels of alanine aminotransferase” value was “dramatically decreased” and the “levels of aspartate aminotransferase” value is “dramatically decreased”. The quality of life entry in the data set on HCV (patient-reported) was “clear improvement”. Also, in data set [1] (400 mg/day, pre- and postoperative), the “remission of GIST” value is “achieved cytogenetic and molecular remission”. Also, the complication during treatment entry in data set [1] (after 5 months preoperative 400 mg/day, treatment halted) is listed as “acute hemorrhage of the tumor”. Further, the “attenuation of the gastric tumor (histologic examination)” value in data set [1] (after imatinib mesylate treatment) is listed as “significant decreased attenuation”. For the same molecule, the metastasis status result in data set [1] (one year after the initiation of treatment) is on record as “without metastasis”.

Take `CO[C@H]1[C@@H](OC)C[C@H](C)[C@@H](OC)C2=CC(=O)C=C(NC(=O)/C(C)=C/C=C\[C@H](OC)[C@@H](OC(N)=O)/C(C)=C/[C@@H]1C)C2=O` [herbimycin A]: the EMC virus replication entry in the data set on EMC virus was “suppressed viral replication”.

With `OCCC#Cc1nc(-c2ccc(F)cc2)c(-c2ccncc2)n1CCCc1ccccc1` [RWJ67657], the HIV-1 replication result with HIV-1 is reported as “effective in inhibiting HIV-1 replication”.

As to `Cc1ccc(NC(=O)c2ccc(CN3CCN(C)CC3)cc2)cc1Nc1nccc(-c2cccnc2)n1` [imatinib, 4-[(4-methyl-1-piperazinyl)methyl]-N-[4-methyl-3-[[4-(3-pyridinyl)-2-pyrimidinyl]amino]phenyl]-benzamide], the “rates of complete cytogenetic response and of molecular response” value with chronic phase CML is listed as “higher rates”. For the same molecule, the “inhibition of c-Kit tyrosine kinase activity, wild-type vs constitutively active enzyme” value in the data set with c-Kit tyrosine kinase was “equally effective against both wild-type and constitutively active enzyme”.
